In assay [1] the target is T1, MC1-R (Mus musculus, UniProt Q01727).
T1 construct: MC1-R membranes were isolated from B16—F10 mouse melanoma cells; endogenous in cells; host or cells: B16-F10 mouse melanoma cells
As to the kind of experiment: Competitive binding assay: inhibition of 125I-NDP-α-MSH binding to membranes from B16-F10 mouse melanoma cells. The method, boiled down: (§1)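 Rhenium-complexed test peptides at a chosen concentration were assayed for inhibition of 125I-NDP-α-MSH binding to receptor membranes (HEK-293 for cloned human subtypes; B16-F10 cells for MC1-R). Non-specific binding was defined with 1 μM α-MSH, and cpm were normalized to specific binding to give percent inhibition.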

The target in assay [2] is T2, MC4-R (Homo sapiens, UniProt P32245).
T2 construct: expressed in transfected cells; host or cells: HEK-293
As to the kind of experiment: Competitive binding assay: inhibition of 125I-NDP-α-MSH binding to HEK-293 membranes with cloned human receptor subtype 4. The essentials: as §1

In assay [3] the target is T3, hMC5-R (Homo sapiens, UniProt P33032).
T3 construct: expressed in transfected cells; host or cells: HEK-293
Kind of assay: Competitive binding assay: inhibition of 125I-NDP-α-MSH binding to HEK-293 membranes with cloned human receptor subtype 5. The conditions noted are these: Table 6; 1 μM; mean of triplicate. The method, boiled down:
as §1

The target of assay [4] is T4, hMC2-R (Homo sapiens, UniProt P41968).
T4 construct: expressed in transfected cells; host or cells: HEK-293
Kind of assay: Competitive binding assay of additional compounds, Table 6 hMC2-R. The following applies: 1 μM, mean of triplicate.

The target in assay [5] is T2, MC4-R. As to the kind of experiment: Functional activity assay: intracellular cAMP in HEK-293 cells expressing MC4-R. It is filed as cell-based. The following applies: Re-complexed peptide. Here is the method:
Rhenium-complexed metallopeptides were prepared, with functional evaluation of peptides at MC1-R and MC4-R performed by measuring the accumulation of intracellular cAMP in HEK-293 cells expressing MC4-R or B16-F10 mouse melanoma cells expressing MC1-R. Antagonistic activity was determined by measuring the inhibition of α-MSH-induced cAMP levels following exposure to peptide. Cells, suspended in Earle's Balanced Salt Solution containing 10 mM HEPES, pH 7.5, 5 mM MgCl2, 1 mM glutamine, 0.1% albumin and 0.6 mM 3-isobutyl-1-methyl-xanthine, a phosphodiesterase inhibitor, were plated in 96 well plates at a density of 0.5×10^5 cells per well. Cells were incubated with the test peptides in the presence or absence of α-MSH for 1 hour at 37° C. cAMP levels were measured by EIA (Amersham) in the cell lysates. Data analysis and EC50 values were determined using nonlinear regression analysis with Prism Graph-Pad software.

Assay [6] deals with Male Sprague-Dawley rats. As to the kind of experiment: Penile erection behavior dose response animal studies. The conditions noted are these: IV 50 μg/kg; 30 min observation. It is filed as in vivo, rat. Here is the method: For behavioral experiments test solutions of rhenium-complexed metallopeptides were freshly prepared in DMSO and diluted in saline. Male Sprague-Dawley rats (Taconic) weighing 200-250 g were kept on a 12 hour on/off light cycle with food and water ad libitum. All behavioral studies were performed between 10 a.m. and 5 p.m. Groups of 3-10 rats were treated with the rhenium-complexed metallopeptides at a variety of doses via intravenous (IV) injection. In a second experimental paradigm, rats were treated a selected compound intranasally (IN) using a micropipet to deliver 25 μl of solution into one nostril. Immediately after treatment, rats were placed into individual Lucite cages (27 cm long, 16 cm wide and 25 cm high) for behavioral observation.

Setting [7] is: Table 6, 1 μM, mean of triplicate.
The mark [8] stands for this setting: Table 1, 1 μM Re-complexed peptide.

“And” between values parts separate entries of the source, which are not always exact repeats. Identical values can stand only once. Non-standard residues stand in square brackets, D forms with d. No end group written: not given here. Igl = N[C@H](C(=O)O)C1Cc2ccccc2C1; Tic = O=C(O)[C@@H]1Cc2ccccc2CN1; d(pGlu) = O=C1CC[C@H](C(=O)O)N1; code Z = not defined here

T4 sequence (P41968 whole entry): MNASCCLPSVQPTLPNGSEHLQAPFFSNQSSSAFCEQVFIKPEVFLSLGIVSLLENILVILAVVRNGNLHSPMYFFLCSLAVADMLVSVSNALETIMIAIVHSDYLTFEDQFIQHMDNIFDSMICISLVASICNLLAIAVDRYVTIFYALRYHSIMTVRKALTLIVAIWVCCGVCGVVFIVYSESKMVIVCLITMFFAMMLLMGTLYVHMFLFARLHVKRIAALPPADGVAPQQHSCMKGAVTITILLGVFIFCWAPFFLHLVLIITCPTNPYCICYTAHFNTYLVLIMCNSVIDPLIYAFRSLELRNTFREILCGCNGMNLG
T1 sequence (Q01727 whole entry): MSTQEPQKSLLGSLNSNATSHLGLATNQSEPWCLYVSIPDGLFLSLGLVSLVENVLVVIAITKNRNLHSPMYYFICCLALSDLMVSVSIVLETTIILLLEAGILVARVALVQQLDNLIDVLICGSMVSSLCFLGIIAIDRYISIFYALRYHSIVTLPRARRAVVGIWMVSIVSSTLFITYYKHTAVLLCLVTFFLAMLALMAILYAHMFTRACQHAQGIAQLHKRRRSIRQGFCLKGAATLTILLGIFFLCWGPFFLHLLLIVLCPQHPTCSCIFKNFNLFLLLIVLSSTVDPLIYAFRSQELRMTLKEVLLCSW
T3 sequence (P33032 whole entry): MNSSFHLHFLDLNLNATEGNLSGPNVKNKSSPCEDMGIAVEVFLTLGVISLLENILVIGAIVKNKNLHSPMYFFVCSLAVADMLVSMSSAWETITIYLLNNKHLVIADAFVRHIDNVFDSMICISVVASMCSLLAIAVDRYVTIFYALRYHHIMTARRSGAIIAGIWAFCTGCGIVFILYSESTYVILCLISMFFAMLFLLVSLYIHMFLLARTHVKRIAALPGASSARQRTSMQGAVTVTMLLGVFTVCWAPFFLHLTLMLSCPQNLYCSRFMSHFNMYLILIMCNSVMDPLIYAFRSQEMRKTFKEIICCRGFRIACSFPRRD
T2 sequence (P32245 whole entry): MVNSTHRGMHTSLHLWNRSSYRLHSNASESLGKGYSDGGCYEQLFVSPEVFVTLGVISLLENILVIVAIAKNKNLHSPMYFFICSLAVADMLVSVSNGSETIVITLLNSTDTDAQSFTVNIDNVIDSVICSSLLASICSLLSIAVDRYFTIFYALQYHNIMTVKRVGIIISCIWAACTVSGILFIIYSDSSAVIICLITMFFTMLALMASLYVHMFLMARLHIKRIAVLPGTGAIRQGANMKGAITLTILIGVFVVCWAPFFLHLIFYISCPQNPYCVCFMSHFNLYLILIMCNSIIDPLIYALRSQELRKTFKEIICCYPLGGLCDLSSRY

On to “Ac-Leu-His-D-Phe-Arg-Cys-Trp-NH2 ({Ac-Leu-H2N}-[dF]RCW-NH2; not fully specified; printed as Ac-Leu-His-D-Phe-Arg-Cys-Trp-NH2)”, for which, in assay [1] (setting [7]), the “% Inhibition of Binding MC1-R” value is 75%. Further, in assay [2] (setting [7]), the “% Inhibition of Binding hMC4-R” value is 0%. In assay [3], the “% Inhibition of Binding hMC5-R” value amounted to 31%. The “% Inhibition of Binding hMC2-R” value in assay [4] was found to be 0%.
Regarding “Hept-Ser(Bzl)-D-Phe(4′-Cl)-Arg-Trp-Cys-NH2”, in assay [1] (setting [7]), the “% Inhibition of Binding MC1-R” value was 85%. For the same substance, the “% Inhibition of Binding hMC4-R” value in assay [2] (setting [7]) is listed as 88%. Besides, in assay [3], the “% Inhibition of Binding hMC5-R” value was found to be 100%. Further, in assay [4], the “% Inhibition of Binding hMC2-R” value turned out to be 85%.
For the substance “Z-D-Pyr-D-Phe-Arg-Trp-Cys-NH2 ({code Z}-[d(pGlu)][dF]RWC-NH2; reading uncertain; also: metal complex, printed as Z-D-Pyr-D-Phe-Arg-Trp-Cys-NH2)”, the “% Inhibition of Binding MC1-R” value in assay [1] (setting [7]) amounted to 44%. For the same substance, the “% Inhibition of Binding hMC4-R” value in assay [2] (setting [7]) came to 46%. In addition, the “% Inhibition of Binding hMC5-R” value in assay [3] was 28%. Moreover, the “% Inhibition of Binding hMC2-R” value in assay [4] amounted to 16%.
Take “Ac-Nle-Ala-His-D-Phe(3′-Cl)-Arg-Trp-Cys-Trp-NH2”: the “% Inhibition of Binding MC1-R” value in assay [1] (setting [8]) is 101%. In assay [2] (setting [8]), the “% Inhibition of Binding hMC4-R” value was determined as 100%. Further, the “Functional activity at MC4-R (cAMP accumulation; inhibition of α-MSH-induced cAMP)” value in assay [5] is “MC4-R agonists”. For the same substance, in assay [6], the “Mean Penile Erections/Rat” value is listed as 0.5.
With [dP][dF]RCW-NH2, the “% Inhibition of Binding MC1-R” value in assay [1] (setting [7]) came out at 53%. Also, the “% Inhibition of Binding hMC4-R” value in assay [2] (setting [7]) came to 13%. Further, the “% Inhibition of Binding hMC5-R” value in assay [3] is reported as 67%. Moreover, in assay [4], the “% Inhibition of Binding hMC2-R” value stood at 0%.
Take “3′-Br Phenyl acetyl-Arg-Arg-D-Phe(4′-Me)-Cys-NH2”: in assay [1] (setting [7]), the “% Inhibition of Binding MC1-R” value is 94% and 84%. Further, the “% Inhibition of Binding hMC4-R” value in assay [2] (setting [7]) is 99% and 93%. Moreover, the “% Inhibition of Binding hMC5-R” value in assay [3] came out at 88%. In addition, the “% Inhibition of Binding hMC2-R” value in assay [4] worked out at 87%.
As to [Igl][dF]RWC-NH2, the “% Inhibition of Binding MC1-R” value in assay [1] (setting [7]) is listed as 70%. For the same substance, in assay [2] (setting [7]), the “% Inhibition of Binding hMC4-R” value came out at 62%. Moreover, the “% Inhibition of Binding hMC5-R” value in assay [3] is reported as 36%. For the same substance, the “% Inhibition of Binding hMC2-R” value in assay [4] is given as 0%.
Consider “Tic-D-Phe-Arg-Trp-Cys-NH2 ([Tic][dF]RWC-NH2; also: metal complex)”, for which, in assay [1] (setting [7]), the “% Inhibition of Binding MC1-R” value came out at 14%. Moreover, the “% Inhibition of Binding hMC4-R” value in assay [2] (setting [7]) is reported as 64%. Moreover, the “% Inhibition of Binding hMC5-R” value in assay [3] is recorded as 69%. For the same substance, in assay [4], the “% Inhibition of Binding hMC2-R” value worked out at 25%.

The record behind these values is US7307063B2, “Melanocortin metallopeptides for treatment of sexual dysfunction” (Palatin Technologies, Inc., priority 2001, dated 2007).
